Laboratory results reported in ChEMBL document CHEMBL1201862, “PubChem BioAssay data set” (2004).
Calls of active or inactive are those of the source. Cut-off read from the data, not from the text of the source, for most assays here: actives have a measured EC50 and inactives only a lower limit.

How the values were obtained:
[1] = target: T1, Heat shock factor protein 1 (Mus musculus, UniProt P38532); test: decrease of HSF1-responsive luciferase luminescence – cell-based, NIH3T3, dose retest, confirmation (AID 2382); assay type: functional;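 note: NIH3T3 fibroblasts with HSF1-driven luciferase reporter stressed by proteasome inhibitor MG132; luminescence from HSF1-driven luciferase expression after 8 hours of MG132 stress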
T1 sequence (P38532 whole entry): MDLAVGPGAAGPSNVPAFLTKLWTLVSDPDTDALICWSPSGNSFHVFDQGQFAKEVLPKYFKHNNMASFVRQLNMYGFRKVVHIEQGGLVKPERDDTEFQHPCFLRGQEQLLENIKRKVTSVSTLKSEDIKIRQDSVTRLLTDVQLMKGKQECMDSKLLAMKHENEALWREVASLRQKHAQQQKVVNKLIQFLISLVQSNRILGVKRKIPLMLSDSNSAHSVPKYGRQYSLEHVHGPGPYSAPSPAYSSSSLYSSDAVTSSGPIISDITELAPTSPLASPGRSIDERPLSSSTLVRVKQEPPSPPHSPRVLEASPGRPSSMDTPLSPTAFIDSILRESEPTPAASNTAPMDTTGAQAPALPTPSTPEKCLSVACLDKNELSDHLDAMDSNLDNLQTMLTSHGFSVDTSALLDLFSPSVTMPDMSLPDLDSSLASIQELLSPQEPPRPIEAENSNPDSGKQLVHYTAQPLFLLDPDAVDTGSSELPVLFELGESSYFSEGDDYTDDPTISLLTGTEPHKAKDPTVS

[2] = target: Cytochrome P450 2D6 (Homo sapiens, UniProt P10635);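 note: CYP2D6 member of a cytochrome P450 panel assay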
[3] = luciferase reporter signal suppression in cells – H4 neuroglioma cells, luminescence, dose response (AID 1990); assay type: functional, cell-based
[4] = Luminescence Cell-Based Dose Response HTS to Identify Inhibitors of 5'UTR Stem-Loop Driven Prion Protein mRNA Translation in H4 Neuroglioblastoma Cells. [Related pubchem assays: 1827 (Project Summary), 1813 (Primary HTS)]; assay type: functional
[5] = NIH3T3 cell viability loss – ATP luminescence, mouse fibroblasts, counter-screen, dose response (AID 2010); assay type: functional, cell-based;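 note: cells exposed to compound for about 90 hours before reading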
[6] = Trypanosoma cruzi growth suppression in host cells – NIH3T3 host cells, beta-gal luminescence, confirmation (AID 2044); assay type: functional, cell-based;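 note: intracellular parasites grown in NIH/3T3 mouse fibroblasts as host cells; luminescent beta-galactosidase reporter signal from transgenic T. cruzi replicating inside host cells; inhibitors lower the luminescence signal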
[7] = tested on: INS1; test: INS-1E survival protection against cytokine death – cell-based, luminescence, retest, dose response (AID 449756); assay type: functional; conditions: Rattus norvegicus;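 note: cell death triggered by IL-1 beta plus TNF-alpha plus IFN-gamma mixture; protective hits raise ATP signal compared with cytokine alone wells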
[8] = Luminescence Cell-Based Dose Retest to Confirm Inhibitors of Cancer Stem Cells. [Related pubchem assays (depositor defined):AID2717, AID2721]; assay type: functional; conditions: Homo sapiens
[9] = target: T2, Streptokinase A (Streptococcus pyogenes serotype M1, UniProt P10520); test: viability-normalized secreted streptokinase activity reduction – plasminogen activation absorbance, OD405, dose response (AID 1914); assay type: functional, Streptococcus pyogenes M1 GAS;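 note: secreted streptokinase activity via plasminogen activation per viability signal from cell pellet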
T2 sequence (P10520 whole entry): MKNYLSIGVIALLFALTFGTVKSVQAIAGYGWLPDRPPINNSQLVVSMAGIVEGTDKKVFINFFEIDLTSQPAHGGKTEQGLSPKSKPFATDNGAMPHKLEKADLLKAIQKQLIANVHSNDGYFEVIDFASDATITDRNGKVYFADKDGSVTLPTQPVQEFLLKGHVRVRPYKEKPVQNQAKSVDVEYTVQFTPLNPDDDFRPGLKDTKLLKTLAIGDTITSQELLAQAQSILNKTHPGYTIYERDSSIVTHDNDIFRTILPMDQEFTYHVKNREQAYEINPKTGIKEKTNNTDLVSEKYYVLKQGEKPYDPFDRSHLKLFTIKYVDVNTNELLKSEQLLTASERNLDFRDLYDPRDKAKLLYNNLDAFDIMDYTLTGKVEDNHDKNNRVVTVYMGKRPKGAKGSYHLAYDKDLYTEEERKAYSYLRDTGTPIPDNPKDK

[10] = tested on: Streptococcus sp. 'group A'; test: Streptococcus pyogenes SK(-)GAS viability under kanamycin – luminescence, BacTiterGlo, confirmation, counter-screen for streptokinase expression inhibitor project, dose response (AID 1900); assay type: functional, organism-based
[11] = tested on: Streptococcus; test: GAS UMAA2166 growth inhibition – luminescence, BacTiterGlo, counter-screen for streptokinase expression inhibitor project, dose response (AID 1915); assay type: functional, organism-based;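 note: potency for reduction of bacterial viability or growth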

Cytochrome P450 2D6, sequence (P10635 whole entry): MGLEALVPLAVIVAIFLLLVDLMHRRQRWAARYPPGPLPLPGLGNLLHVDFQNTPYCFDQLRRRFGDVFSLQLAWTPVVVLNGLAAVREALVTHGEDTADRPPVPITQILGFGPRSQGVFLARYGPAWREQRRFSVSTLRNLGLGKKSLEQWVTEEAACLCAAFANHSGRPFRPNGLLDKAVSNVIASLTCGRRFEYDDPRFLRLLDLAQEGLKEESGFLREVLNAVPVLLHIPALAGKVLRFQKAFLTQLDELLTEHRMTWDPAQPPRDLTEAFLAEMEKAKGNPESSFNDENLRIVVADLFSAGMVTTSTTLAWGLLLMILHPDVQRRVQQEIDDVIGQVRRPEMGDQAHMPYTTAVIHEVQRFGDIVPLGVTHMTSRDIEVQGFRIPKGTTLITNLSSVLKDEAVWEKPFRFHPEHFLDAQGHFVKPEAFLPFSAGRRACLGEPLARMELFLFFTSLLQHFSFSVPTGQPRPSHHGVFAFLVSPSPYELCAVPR

COc1cc(NC(=O)CN(C)S(=O)(=O)c2ccc3c(c2)CC(C)N3C(C)=O)cc(OC)c1 (stereo unspecified)
EC50 [1]: > 195 µM (not active)

CN1C(=O)C(=Cc2ccc(N3CCCCCC3)o2)C(=O)N(C)C1=S
AC50 [2]: 20 µM (inconclusive)

COc1ccc(Cl)cc1N(CC(=O)N1CCN(Cc2ccccc2)CC1)S(C)(=O)=O
EC50 [1]: > 195 µM (not active)

Cc1cc(C)c2cc(CN(CCO)C(=O)Nc3ccc(Cl)cc3)c(O)nc2c1
EC50 [3]: 15.8 µM (active)
EC50 [4]: 33.3 µM (active)

CCC1Oc2ccc(C)cc2N(CC(=O)N(Cc2cccnc2)Cc2ccc(C)o2)C1=O (stereo unspecified)
EC50 [5]: > 30 µM (not active)
EC50 [6]: 0.166 µM (active)

CCCCn1c(N)c(N(CCC(C)C)C(=O)c2ccc([N+](=O)[O-])s2)c(=O)[nH]c1=O
EC50 [5]: > 60 µM (not active)
EC50 [6]: 0.997 µM (active)

CCOC(=O)c1cccc(-[n+]2c(-c3ccccc3)cc(-c3ccccc3)cc2-c2ccccc2)c1.[O-][Cl+3]([O-])([O-])[O-]
AC50 [7]: 2.68 µM (active)

COc1cccc(Nc2nc(-c3ccccc3)nc3ccccc23)c1
AC50 [8]: 5.53 µM (active)

CN(C)S(=O)(=O)c1ccc(-c2csnn2)s1
EC50 [1]: > 195 µM (not active)

Cc1ccc(CSCCNS(=O)(=O)c2ccc([N+](=O)[O-])cc2)cc1
EC50 [5]: > 60 µM (not active)
EC50 [6]: 0.939 µM (active)

O=C(CSc1nnc(SCc2cccc3ccccc23)s1)c1ccc2c(c1)OCO2
AC50 [2]: 7.94 µM (inconclusive)

C[C@@H](N)[C@@H](C)Cc1ccccc1
AC50 [2]: 3.98 µM (inconclusive)

O=C(c1ccccc1)c1ccc(OCCCN2CCCC2)cc1
EC50 [5]: > 60 µM (not active)
EC50 [6]: 0.889 µM (active)

Cc1cccc(NC(=O)c2ccc([N+](=O)[O-])s2)c1C
AC50 [7]: 12 µM (active)
EC50 [5]: > 60 µM (not active)
EC50 [6]: 0.691 µM (active)

CCOC(=O)c1ccc(NC(=O)c2[nH]cnc2C(=O)NCCCCNC(=O)c2nc[nH]c2C(=O)Nc2ccc(C(=O)OCC)cc2)cc1
AC50 [8]: 2.51 µM (active)

Cc1ccccc1NC(S)=NCC1CCN(C(C)c2ccccc2)C1 (stereo unspecified)
EC50 [5]: > 60 µM (not active)
EC50 [6]: 1.1 µM (active)

CC(/C=C/c1ccc(N(C)C)cc1)=N\NC1=NC(=O)CC(C(=O)Nc2ccccc2)S1 (stereo unspecified)
EC50 [9]: > 150 µM (not active)
EC50 [10]: 2.94 µM (active)
EC50 [11]: 9.04 µM (active)

C/C(=N\Nc1nc(C(C)(C)C)cs1)c1ccccc1
EC50 [5]: > 30 µM (not active)
EC50 [6]: 0.673 µM (active)

CC1CCN(c2nc(-c3ccc(F)cc3)cc(C(F)(F)F)n2)CC1
EC50 [9]: 4.61 µM (active)
EC50 [10]: 11.6 µM (active)
EC50 [11]: 17.5 µM (active)

COc1ccc(S(=O)(=O)NCC(c2cccnc2)N2CCN(Cc3ccccc3)CC2)cc1C (stereo unspecified)
EC50 [5]: > 60 µM (not active)
EC50 [6]: 0.678 µM (active)

CC(C)C(=O)N1CCN(c2ccccc2NC(=O)COc2ccc(C3CCCCC3)cc2)CC1
EC50 [9]: 18.9 µM (inconclusive)
EC50 [10]: 15.8 µM (active)
EC50 [11]: > 150 µM (not active)

COc1ccc(O)c(C(=O)c2cnc3nc4ccccc4n3c2)c1
AC50 [7]: 1.23 µM (active)

Fc1ccc(Nc2nc(N/N=C/c3ccco3)nc(N3CCCCC3)n2)cc1
EC50 [5]: 9.91 µM (active)
EC50 [6]: 2.88 µM (active)

COc1ccccc1NS(=O)(=O)c1ccc(C)c(C(N)=O)c1
EC50 [1]: > 195 µM (not active)

O=C(c1ccco1)N(CCCN1CCOCC1)c1nc(-c2ccc(F)cc2)cs1
EC50 [5]: 30.5 µM (active)
EC50 [6]: 1.28 µM (active)

COc1cccc(/C=N/NC(=O)CNC(=O)c2cccs2)c1O
AC50 [7]: 7.39 µM (active)

CCN1CCN(C(S)=Nc2sc(C)c(-c3ccccc3)c2C(=O)OC)CC1
AC50 [8]: 3.65 µM (active)

O=C(NCC(c1cccnc1)N1CCN(c2ccccc2F)CC1)Oc1ccccc1 (stereo unspecified)
EC50 [5]: > 60 µM (not active)
EC50 [6]: 0.401 µM (active)

O=C(/C=C/c1ccc(F)cc1)c1ccccc1Br
AC50 [8]: 3.87 µM (active)

Cn1cccc1C(=O)NC(=O)COC(=O)C12CC3CC(CC(O)(C3)C1)C2
EC50 [1]: 0.372 µM (active)

CCOC(=O)Cn1nc(C)c(NC(=O)COc2ccc([N+](=O)[O-])cc2)c1C
EC50 [1]: > 195 µM (not active)

Cc1ccc(O)c(C(=O)CC(=O)c2ccc(C(C)(C)C)cc2)c1
EC50 [10]: 1.63 µM (active)
EC50 [11]: 3.66 µM (active)

CSc1nnc2ccc(-c3ccc(C)cc3)nn12
EC50 [9]: > 150 µM (not active)
EC50 [10]: > 150 µM (not active)
EC50 [11]: > 150 µM (not active)

Cc1c(CCOC(=O)c2cc([N+](=O)[O-])cc([N+](=O)[O-])c2)sc[n+]1CC(=O)c1ccccc1
EC50 [5]: > 60 µM (not active)
EC50 [6]: 1.97 µM (active)

COc1ccc(C(=O)N/N=C(\C)Cn2cnc([N+](=O)[O-])n2)cc1
EC50 [5]: > 60 µM (not active)
EC50 [6]: 1.03 µM (active)

COc1ccc(NC(=O)c2ccc3c(c2)NC(=O)CS3)cc1S(=O)(=O)Nc1ccc(Br)cc1
EC50 [9]: > 150 µM (not active)
EC50 [10]: 4.17 µM (active)
EC50 [11]: 26.3 µM (active)

O=C(/C=C/c1ccc(F)cc1)c1cc(Br)ccc1O
AC50 [8]: 13.1 µM (active)

C[N+]1(C)[C@@H]2CC[C@H]1CC(OC(=O)c1c[nH]c3ccccc13)C2 (stereo partly specified)
AC50 [2]: 31.6 µM (inconclusive)

O=C(Nc1cccnc1)c1ccc([N+](=O)[O-])s1
AC50 [7]: 7.27 µM (active)

CCOc1ccc(CN2CCC(n3nccc3NC(=O)c3ccccc3OC)CC2)cc1
EC50 [5]: > 60 µM (not active)
EC50 [6]: 0.997 µM (active)

O=C(O)c1cccc(NC(=O)c2ccccc2NC(=O)c2ccccc2F)c1
EC50 [1]: > 195 µM (not active)

COc1ccc2nc(COC(=O)c3cccs3)c(C(C)=O)[n+]([O-])c2c1
EC50 [1]: > 195 µM (not active)

COc1cc(NC(=O)CN(C)S(=O)(=O)c2ccc(-c3ccc(O)nn3)s2)cc(OC)c1
EC50 [1]: > 195 µM (not active)

COc1cc(CCCN2CCNC[C@@H]2Cc2ccc(O)cc2)cc(OC)c1OC
EC50 [1]: > 195 µM (not active)

COC(=O)c1ccccc1NC(=O)c1cc2nc(C3CC3)cc(C(F)(F)F)n2n1
AC50 [2]: 3.16 µM (inconclusive)

CCOC(=O)N1CCN(C(=O)C(CC)n2nc(C)c3sc4ccccc4c3c2=O)CC1 (stereo unspecified)
AC50 [2]: 39.8 µM (inconclusive)

COc1ccccc1CN1CN(S(=O)(=O)c2ccccc2)c2nc3ccccc3nc21
EC50 [9]: 55.1 µM (active)
EC50 [10]: 47.6 µM (active)
EC50 [11]: > 150 µM (not active)

CC(=O)NCc1ccc(C(=O)CCl)s1
EC50 [5]: 3.9 µM (active)
EC50 [6]: 3.21 µM (active)

CCCNC(=O)CSc1nc(-c2cccs2)cc(C(F)(F)F)n1
AC50 [2]: 3.16 µM (inconclusive)

NC(=O)COc1ccc(-n2cnnn2)cc1
EC50 [1]: > 195 µM (not active)

CCCCCCSc1cc(-c2nc3cnccn3c2NCc2ccccc2)ccc1OC
EC50 [9]: 16.7 µM (active)
EC50 [10]: 4.3 µM (active)
EC50 [11]: 12.9 µM (active)

CCN(CCCNC(=O)CCCOc1cc(=O)n(C)c2ccccc12)Cc1ccccc1
EC50 [5]: > 60 µM (not active)
EC50 [6]: 0.281 µM (active)

CC(C)(C)NC(=O)CSC(=Nc1ccc(F)cc1)NC#N
AC50 [2]: 25.1 µM (inconclusive)

COC(=O)c1[nH]c2cc(C)ccc2c1NC(=O)CN1CCCc2ccccc21
EC50 [5]: > 60 µM (not active)
EC50 [6]: 0.99 µM (active)

Cc1ccc(C(=O)N2CCOCC2)cc1Cl
EC50 [9]: > 150 µM (not active)
EC50 [10]: > 150 µM (not active)
EC50 [11]: > 150 µM (not active)

COc1ccc(O)c(C2=Nc3ccccc3N=C(c3cccs3)C2)c1
EC50 [1]: > 195 µM (not active)

c1csc(CN2CC3(CCNCC3)C2)n1
AC50 [2]: 39.8 µM (inconclusive)

CC(C)(C)c1ccc(Oc2cccc(C3CC(=O)C(C4NCCc5ccccc54)C(=O)C3n3cncn3)c2)cc1 (stereo unspecified)
EC50 [9]: > 150 µM (not active)
EC50 [10]: 71.1 µM (active)
EC50 [11]: > 150 µM (not active)
